Measured values published in patent US9862925B2, “Human stem cell-derived neural precursors for treatment of autoimmune diseases of the central nervous system” (Hadasit Medical Research Services & Development Limited, priority 2007, dated 2018).

Experiments:
[1] = test system: hESC-derived multipotent uncommitted neural precursors; assay: Oligodendroglial differentiation of hESCs with retinoic acid and purmorphamine, propagation in low purmorphamine; type: cell-based, human
Procedure: To derive an expandable population of neural precursors enriched for oligodendroglial progenitors (committed), initial neuralization of hESCs was induced as above with or without noggin supplementation. After 2 weeks of culturing in NPM supplemented with mitogens +/−noggin the clusters were treated with RA (1-10 μM; preferably 1 μM) and the hedgehog agonist, Purmurphamine (Merck) (0.5-2 μM; preferably 0.5 μM) to induce ventral-caudal specification of the neuralized cells. Following 7-21 days, preferably 21 days of treatment, the cultures were further propagated for three to 20 more weeks as floating spheres in modified Sato medium supplemented with low concentrations of purmorphamine (0.2-0.5 μM; preferably 0.5 μM), bFGF (20 ng/ml), EGF (20 ng/ml), (NT3; 5 ng/ml) and ascorbic acid (200 nM). For final differentiation, the clusters were plated on poly-D-Lysine (10 μg/ml) and fibronectin (5 μg/ml) coated coverslips in modified Sato medium supplemented with NT3 ([…]), ascorbic acid (200 nM) T3 (40 ng/ml) IGF1 (10 ng/ml;) with or without Rock inhibitor (10 μM; Sigma) for 2-21 days.
To develop expandable cultures enriched for oligodendroglial committed progenitors, hESCs clusters were induced to differentiate as free floating clusters into multipotent uncommitted neural precursors as above with or without noggin. After two weeks of initial neural induction the multipotent uncommitted neural precursors were further cultured for 1-3 weeks, preferably 3 weeks, as floating spheres in modified Sato medium supplemented with mitogens, retinoic acid (RA) and the hedgehog (HH) agonist purmorphamine. During this culture period the early multipotent neural precursors gradually become enriched with Olig2+ oligodendroglial precursors (30-50% of total cells).
For further expansion of the oligodendroglial precursors, the floating spheres were propagated in Sato medium supplemented with mitogens, and low concentrations (0.5 μM) of purmorphamine. After 3-20 weeks of propagation as free floating clusters and plating on fibronectin for 24-48 hours, expression of the OPC markers Olig2 (FIG. 8A), PDGFRα (FIG. 8B) and NG2 (FIG. 8C) were detected in 30%, 20% and 20% of the differentiating cells, respectively. Following further 7-21 days of differentiation in the presence of NT3, AA, T3 and IGF1 +/− Rock inhibitor, markers of mature oligodendrocytes such as O4 (FIG. 8D), GalC (FIG. 8E) and MBP (FIG. 8F) were detected in 20%, 15% and 3% of the plated cells, respectively.

hESCs = assay: In vitro oligodendroglial differentiation of hESCs following retinoic acid treatment; type: cell-based, human; conditions: RA treatment
Procedure: Derivation of enriched population of committed oligodendrocyte progenitor cells (OPCs): Initial neural differentiation of hESC was induced as described above for the derivation of enriched population of uncommitted neural precursors. Following two weeks of culturing of hESC clusters in NPM supplemented with noggin (700 ng/ml), and the oligodendroglial mitogens bFGF (20 ng/ml) and EGF (20 ng/ml), the cultures were treated with retinoic acid (RA) (sigma) (10 μM) to induce caudal specification of the neuralized cells. Following 7 days of RA treatment, cultures were propagated as floating spheres in the oligodendroglial specific, modified Sato medium supplemented with the oligodendroglial mitogens bFGF (20 ng/ml), EGF (20 ng/ml) and PDGF-AA (50 ng/ml), and the oligodendroglial survival and maturation factors neurotrophine 3 (NT3) (5 ng/ml) and triiodothyronine (T3) (40 ng/ml).
In vitro oligodendroglial differentiation of hESCs was examined. The experimental protocol included initial induction of human ESCs to differentiate as free floating clusters, under defined culture conditions, in the presence of noggin into early multipotent neural precursors according to the published protocols as described above. After two weeks, they were treated with retinoic acid (RA) and propagated as floating spheres in modified Sato medium and mitogens At sequential week intervals, differentiation was induced by plating on fibronectin and withdrawal of the mitogens, and the expression of oligodendroglial markers were analyzed by immunostaining. After three weeks of propagation as free floating clusters, followed by plating and differentiation for 48 hours, the differentiating cells expressed the oligodendroglial markers NG2 (12%) (FIGS. 7A,[…], 7D, 7F) GD3 (20%) (FIGS. 7B, 7C) and PDGFRα (15%) (FIGS. 7E, 7F). Although at this stage of three weeks propagation, when enrichment for OPCs was obtained, markers of mature oligodendrocytes such as O4 and GalC were not detected, even after 7-10 days of differentiation. Only in cultures that were propagated for more than 5 weeks and induced to differentiate for 7 days, O4 and GalC were expressed by 3% and 1% of differentiating cells, respectively (FIGS. 7G, 7I (O4) and FIGS. 7H, 7I (GalC). Nuclei in FIGS. 7C, 7F, 7G-7I were counter stained with DAPI.

[2] = after RA + purmorphamine, 3-20 weeks propagation with 0.5 μM purmorphamine, plated on fibronectin 24-48 hours
[3] = propagation with 0.5 μM purmorphamine, further 7-21 days differentiation with NT3, AA, T3, IGF1 +/- Rock inhibitor
[4] = propagated more than 5 weeks, differentiated 7 days
[5] = three weeks propagation as floating clusters, differentiation 48 hours

Row | SMILES | Olig2+ oligodendroglial precursors (of total cells) ([1]; 1-3 weeks as floating spheres in modified Sato medium with mitogens, RA and purmorphamine) | differentiating cells expressing NG2 [1, 2] [%] | differentiating cells expressing Olig2 [1, 2] [%] | differentiating cells expressing PDGFRα [1, 2] [%] | plated cells expressing GalC [1, 3] [%] | plated cells expressing MBP [1, 3] [%] | plated cells expressing O4 [1, 3] [%] | differentiating cells expressing GalC (hESCs; [4]) [%] | differentiating cells expressing O4 (hESCs; [4]) [%] | differentiating cells expressing GD3 (hESCs; [5]) [%] | differentiating cells expressing NG2 (hESCs; [5]) [%] | differentiating cells expressing PDGFRα (hESCs; [5]) [%]
1 | c1ccc2c(Oc3nc(Nc4ccc(N5CCOCC5)cc4)c4ncn(C5CCCCC5)c4n3)cccc2c1 [purmorphamine] | 30-50% | 20 | 30 | 20 | 15 | 3 | 20 |  |  |  |  | 
2 | CC1=C(/C=C/C(C)=C/C=C/C(C)=C/C(=O)O)C(C)(C)CCC1 [retinoic acid] |  |  |  |  |  |  |  | 1 | 3 | 20 | 12 | 15
